SMILES strings stand for the structures. Active and inactive are the calls of the source. The calls are words filed in the database; no cut-off is given here.

One assay deals with T1, Tyrosine-protein kinase Lck (Homo sapiens, UniProt P06239). As to the kind of experiment: Inhibition of LCK at 10 uM.
Target sequence in this assay (P06239 2-509 limits assumed): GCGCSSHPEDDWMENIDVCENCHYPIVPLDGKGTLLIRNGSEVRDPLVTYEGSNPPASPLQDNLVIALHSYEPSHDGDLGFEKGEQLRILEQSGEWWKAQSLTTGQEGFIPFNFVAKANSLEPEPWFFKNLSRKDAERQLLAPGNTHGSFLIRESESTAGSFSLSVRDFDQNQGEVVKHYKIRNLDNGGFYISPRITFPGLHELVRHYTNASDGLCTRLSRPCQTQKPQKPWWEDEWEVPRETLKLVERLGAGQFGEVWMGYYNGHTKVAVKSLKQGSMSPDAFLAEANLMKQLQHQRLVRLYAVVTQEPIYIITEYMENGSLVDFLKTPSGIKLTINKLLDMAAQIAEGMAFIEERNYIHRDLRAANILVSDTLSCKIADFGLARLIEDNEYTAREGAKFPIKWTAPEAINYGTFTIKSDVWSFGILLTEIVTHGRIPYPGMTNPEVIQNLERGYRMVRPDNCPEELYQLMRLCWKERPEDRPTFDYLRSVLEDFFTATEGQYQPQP
Regarding `COc1cc(O)c2c(c1)/C=C/CC(=O)OCCC1(CCCCC1)CCOC(=O)CCC[C@H](C)OC2=O`, the outcome was inactive. Consider `COc1cc(O)c2c(c1)/C=C/CC(=O)OCCCCCCOC(=O)CCC[C@H](C)OC2=O`, for which the result was inactive.

For the molecule `COc1cc(O)c2c(c1)/C=C/CC(=O)OCCCC(c1ccccc1)(C(C)O)CCCOC(=O)CCC[C@H](C)OC2=O` (stereo not given in full), the result was inactive. On to `COc1cc(O)c2c(c1)/C=C/CC(=O)OCCCOCCCOC(=O)CCC[C@H](C)OC2=O`, for which the outcome was inactive. Take `COc1cc(O)c2c(c1)/C=C/CC(=O)OCCCCOC(=O)CCC[C@H](C)OC2=O`: the result was inactive. On to `COc1cc(O)c2c(c1)/C=C/CC(=O)NCCCOCCCCOCCCNC(=O)CCC[C@H](C)OC2=O`, for which the result was inactive. `COc1cc(O)c2c(c1)/C=C/CC(=O)OC/C=C\COC(=O)CCC[C@H](C)OC2=O`: the result was inactive.

In the case of `COc1cc(O)c2c(c1)/C=C/CC(=O)OCCCC(c1ccccc1)(C(O)c1ccccc1)CCCOC(=O)CCC[C@H](C)OC2=O` (stereo not given in full), the result was inactive. Still for that read-out and setting: next, `COc1cc(O)c2c(c1)/C=C/CC(=O)NCCCOCCCNC(=O)CCC[C@H](C)OC2=O`: “inactive”. Take `COc1cc(O)c2c(c1)/C=C/CC(=O)NCCCN(C)CCCNC(=O)CCC[C@H](C)OC2=O`: the outcome was inactive. The same measure, in the same setting: to `COc1cc(O)c2c(c1)/C=C/CC(=O)OCCOCC#CCOCCOC(=O)CCC[C@H](C)OC2=O` belongs “inactive”; to `COc1cc(O)c2c(c1)/C=C/CC(=O)OC/C=C(\C)CC/C=C(\C)COC(=O)CCC[C@H](C)OC2=O`, “inactive”; to `COc1cc(O)c2c(c1)/C=C/CC(=O)OCc1cccc(c1)COC(=O)CCC[C@H](C)OC2=O`, “inactive”. The same measure, in the same setting: to `COc1cc(O)c2c(c1)/C=C/CC(=O)NCCCCNC(=O)CCC[C@H](C)OC2=O` belongs “inactive”.

As for `COc1cc(O)c2c(c1)/C=C/CC(=O)OCCOC(=O)CCC[C@H](C)OC2=O`, the result was inactive. Still for that read-out and setting: next, `COc1cc(O)c2c(c1)/C=C/CC(=O)OCCCCCCCCOC(=O)CCC[C@H](C)OC2=O`: “inactive”. As for `COc1cc(O)c2c(c1)/C=C/CC(=O)NCCCCCCCNC(=O)CCC[C@H](C)OC2=O`, the outcome was inactive.

The target of another assay is T1, Tyrosine-protein kinase Lck.
Target sequence in this assay (P06239 whole entry): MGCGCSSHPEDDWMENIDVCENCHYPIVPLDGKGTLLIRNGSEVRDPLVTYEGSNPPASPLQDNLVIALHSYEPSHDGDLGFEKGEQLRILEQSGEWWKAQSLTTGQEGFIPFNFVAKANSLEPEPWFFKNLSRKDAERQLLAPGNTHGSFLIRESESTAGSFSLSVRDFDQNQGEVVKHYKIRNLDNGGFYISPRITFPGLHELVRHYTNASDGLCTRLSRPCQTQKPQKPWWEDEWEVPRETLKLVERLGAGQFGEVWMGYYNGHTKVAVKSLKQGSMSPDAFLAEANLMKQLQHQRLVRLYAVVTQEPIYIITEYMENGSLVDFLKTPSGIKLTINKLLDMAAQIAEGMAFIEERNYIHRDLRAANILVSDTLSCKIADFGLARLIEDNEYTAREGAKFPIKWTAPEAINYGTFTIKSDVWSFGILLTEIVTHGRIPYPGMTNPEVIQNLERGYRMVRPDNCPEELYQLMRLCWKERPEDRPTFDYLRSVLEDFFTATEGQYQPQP
What is called IC50 is the midpoint of a concentration-inhibition curve. A higher IC50 goes with weaker potency in that assay. `COc1cc(O)c2c(c1)/C=C/C[C@@H](O)[C@H](O)C(=O)CCC[C@H](C)OC2=O` [DIHYDROXYMETHYLZEARALENONE] registered an IC50 of 200 nM. The same measure, in the same setting: next, `COc1cc(O)c2c(c1)CCCC(O)[C@H](O)C(=O)/C=C\C[C@H](C)OC2=O` (single isomer, unassigned): 750 nM.

System in the next assay: not listed separately
As to the kind of experiment: Inhibition of MAPK.
Consider `COc1cc(O)c2c(c1)CCCC(O)[C@H](O)C(=O)/C=C\C[C@H](C)OC2=O` (single isomer, unassigned), for which the IC50 stood at 4 nM.

These data come from ChEMBL document CHEMBL1136873, “Application of combinatorial biocatalysis for a unique ring expansion of dihydroxymethylzearalenone” (Bioorg Med Chem Lett, 2009).
